Reference: patent publication US20100267561A1, “HERBICIDAL PYRIDAZINONE DERIVATIVES” (priority 2007, published 2010)

Columns and labels:
Experiment in all cases: Test B pre-/postemergence plant response
Type in all cases: in vivo
[1] = system: morningglory (Ipomoea coccinea)
How it was run: (§1)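 Seeds were sown and sprayed preemergence, while plants at 2 to 18 cm (1- to 4-leaf stage) got postemergence sprays. Compounds were formulated in a non-phytotoxic solvent mixture with surfactant. After 13 to 15 days in a greenhouse, injury was rated visually against untreated controls, 0 (no effect) to 100 (complete control).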

[2] = system: common ragweed (Ambrosia elation)
How it was run: as §1

[3] = system: common (oilseed) sunflower (Helianthus annuus); details: Preemergence
How it was run: as §1

kochia (Kochia scoparia) = system: kochia (Kochia scoparia)
How it was run: as §1

[4] = system: surinam grass (Brachiaria decumbens)
How it was run: as §1

[5] = system: large crabgrass (Digitaria sanguinalis)
How it was run: as §1

[6] = system: eastern black (E.B.) nightshade (Solanum ptycanthum); details: Preemergence
How it was run: as §1

soybean (Glycine max) = system: soybean (Glycine max)
How it was run: as §1

[7] = system: lambsquarters (Chenopodium album)
How it was run: as §1

[8] = system: wheat (Triticum aestivum)
How it was run: as §1

[9] = system: blackgrass (Alopecurus myosuroides); details: for Blackgrass plant response rating: 8 g ai/ha
How it was run: as §1

[10] = system: green foxtail (Setaria viridis)
How it was run: as §1

wild oat (Avena fatua) = system: wild oat (Avena fatua)
How it was run: as §1

[11] = system: goosegrass (Eleusine indica)
How it was run: as §1

[12] = 8 g ai/ha, postemergence, 0-100 scale
[13] = Postemergence, 16 g ai/ha, scale 0 to 100
[14] = Postemergence, 31 g ai/ha, scale 0 to 100
[15] = Postemergence, 62 g ai/ha, scale 0 to 100, 0 no effect, 100 complete control
[16] = Preemergence, 31 g ai/ha, scale 0 to 100 (0 no effect, 100 complete control)
[17] = Preemergence, 62 g ai/ha, scale 0 to 100
[18] = Preemergence, 8 g ai/ha, scale 0 to 100
[19] = Preemergence, 16 g ai/ha, scale 0 to 100
[20] = 31 g ai/ha, scale 0 to 100 (0 no effect, 100 complete control)
[21] = Preemergence, 31 g ai/ha, 0 to 100 scale, 0 no effect, 100 complete control
[22] = Preemergence, 62 g ai/ha, 0 to 100 scale, 0 no effect, 100 complete control

Compound: CCOC(=O)Oc1cnn(C)c(=O)c1-n1nc(-c2ccc(Cl)cc2)cc1C [Compound 53]
- Morningglory plant response rating [1, 12]: 0
- Plant response rating, Morningglory [1, 13]: 0
- Plant response rating, Morningglory [1, 14]: 0
- Plant response rating, Morningglory [1, 15]: 0
- Plant response rating, Morningglory [1, 16]: 0
- Plant response rating, Morningglory [1, 17]: 0
- Morningglory plant response rating [1, 18]: 0
- Morningglory plant response rating [1, 19]: 0
- Ragweed plant response rating [2, 12]: 0
- Plant response rating, Ragweed [2, 13]: 0
- Plant response rating, Ragweed [2, 14]: 0
- Plant response rating, Ragweed [2, 15]: 0
- Plant response rating, Ragweed [2, 16]: 0
- Plant response rating, Ragweed [2, 17]: 0
- Ragweed plant response rating [2, 18]: 0
- Ragweed plant response rating [2, 19]: 0
- Plant response rating, Sunflower [3, 20]: 0
- Plant response rating, Sunflower ([3]; 62 g ai/ha, scale 0 to 100): 0
- Sunflower plant response rating ([3]; 8 g ai/ha, scale 0 to 100): 0
- Sunflower plant response rating ([3]; 16 g ai/ha, scale 0 to 100): 0
- Kochia plant response rating (kochia (Kochia scoparia); [12]): 0
- Plant response rating, Kochia (kochia (Kochia scoparia); [13]): 0
- Plant response rating, Kochia (kochia (Kochia scoparia); [14]): 0
- Plant response rating, Kochia (kochia (Kochia scoparia); [15]): 0
- Plant response rating, Kochia (kochia (Kochia scoparia); [21]): 0
- Surinam Grass plant response rating [4, 12]: 75
- Plant response rating, Surinam Grass [4, 13]: 98
- Plant response rating, Surinam Grass [4, 14]: 100
- Plant response rating, Surinam Grass [4, 15]: 100
- Plant response rating, Surinam Grass [4, 16]: 60
- Plant response rating, Surinam Grass [4, 22]: 95
- Surinam Grass plant response rating [4, 18]: 0
- Surinam Grass plant response rating [4, 19]: 20
- Crabgrass, Large plant response rating [5, 12]: 65
- Plant response rating, Crabgrass, Large [5, 13]: 85
- Plant response rating, Crabgrass, Large [5, 14]: 90
- Plant response rating, Crabgrass, Large [5, 15]: 100
- Plant response rating, Crabgrass, Large [5, 21]: 0
- Plant response rating, Crabgrass, Large [5, 17]: 0
- Crabgrass, Large plant response rating [5, 18]: 0
- Crabgrass, Large plant response rating [5, 19]: 0
- Plant response rating, Nightshade, E. B. [6, 20]: 15
- Plant response rating, Nightshade, E. B. ([6]; 62 g ai/ha, scale 0 to 100): 20
- Nightshade, E. B. plant response rating ([6]; 8 g ai/ha, scale 0 to 100): 0
- Nightshade, E. B. plant response rating ([6]; 16 g ai/ha, scale 0 to 100): 0
- Soybean plant response rating (soybean (Glycine max); [12]): 0
- Plant response rating, Soybean (soybean (Glycine max); [13]): 0
- Plant response rating, Soybean (soybean (Glycine max); [14]): 0
- Plant response rating, Soybean (soybean (Glycine max); [15]): 0
- Plant response rating, Soybean (soybean (Glycine max); [16]): 0
- Plant response rating, Soybean (soybean (Glycine max); [17]): 65
- Soybean plant response rating (soybean (Glycine max); [18]): 0
- Soybean plant response rating (soybean (Glycine max); [19]): 0
- Lambsquarters plant response rating [7, 12]: 0
- Plant response rating, Lambsquarters [7, 13]: 0
- Plant response rating, Lambsquarters [7, 14]: 0
- Plant response rating, Lambsquarters [7, 15]: 0
- Plant response rating, Lambsquarters [7, 21]: 0
- Plant response rating, Lambsquarters [7, 17]: 35
- Lambsquarters plant response rating [7, 18]: 0
- Lambsquarters plant response rating [7, 19]: 0
- Wheat plant response rating [8, 12]: 5
- Plant response rating, Wheat [8, 13]: 55
- Plant response rating, Wheat [8, 14]: 85
- Plant response rating, Wheat [8, 15]: 85
- Plant response rating, Wheat [8, 16]: 0
- Plant response rating, Wheat [8, 22]: 55
- Wheat plant response rating [8, 19]: 0
- Blackgrass plant response rating ([9]; postemergence, 0-100 scale): 30
- Plant response rating, Blackgrass [9, 13]: 60
- Plant response rating, Blackgrass [9, 14]: 95
- Plant response rating, Blackgrass [9, 15]: 95
- Plant response rating, Blackgrass ([9]; Preemergence, 16 g ai/ha, scale 0 to 100 (0 no effect, 100 complete control)): 100
- Plant response rating, Blackgrass [9, 21]: 100
- Plant response rating, Blackgrass [9, 17]: 100
- Blackgrass plant response rating ([9]; Preemergence, scale 0 to 100): 95
- Foxtail, Green plant response rating [10, 12]: 95
- Plant response rating, Foxtail, Green [10, 13]: 95
- Plant response rating, Foxtail, Green [10, 14]: 100
- Plant response rating, Foxtail, Green [10, 15]: 100
- Plant response rating, Foxtail, Green [10, 21]: 100
- Plant response rating, Foxtail, Green [10, 17]: 100
- Foxtail, Green plant response rating [10, 18]: 95
- Foxtail, Green plant response rating [10, 19]: 100
- Oat, Wild plant response rating (wild oat (Avena fatua); [12]): 80
- Plant response rating, Oat, Wild (wild oat (Avena fatua); [13]): 90
- Plant response rating, Oat, Wild (wild oat (Avena fatua); [14]): 95
- Plant response rating, Oat, Wild (wild oat (Avena fatua); [15]): 98
- Plant response rating, Oat, Wild (wild oat (Avena fatua); [16]): 80
- Plant response rating, Oat, Wild (wild oat (Avena fatua); [17]): 85
- Oat, Wild plant response rating (wild oat (Avena fatua); [18]): 40
- Oat, Wild plant response rating (wild oat (Avena fatua); [19]): 65
- Goosegrass plant response rating [11, 12]: 20
- Plant response rating, Goosegrass [11, 13]: 60
- Plant response rating, Goosegrass [11, 14]: 65
- Plant response rating, Goosegrass [11, 15]: 100
- Plant response rating, Goosegrass [11, 21]: 0
- Plant response rating, Goosegrass [11, 17]: 0
- Goosegrass plant response rating [11, 18]: 0
- Goosegrass plant response rating [11, 19]: 0
